We go through 2 compounds from EP0158265A2, “Benzamide and anilide derivatives” (BEECHAM GROUP PLC, priority 1984, dated 1985).

The structures appear in SMILES notation.

This assay deals with von Bezold-Jarisch reflex evoked by 5HT. The assay is described as follows: Antagonism of the von Bezold-Jarisch reflex evoked by 5HT in the anaesthetised rat. Type of assay: in vivo. Conditions: anaesthetised male rat; compound given intravenously; concentration reducing the 5HT-evoked heart rate response (5-HT usually 6µg/kg i.v.) to 50% of control. The method, then:
Antagonism of the von Bezold-Jarisch reflex
The compounds were evaluated for antagonism of the von Bezold-Jarisch reflex evoked by 5HT in the anaesthetised rat according to the following method: • Male rats (Beecham Pharmaceuticals), 250-350g, were anaesthetised with urethane (1.25g/kg intraperitoneally) and blood pressure and heart rate recorded as described by Fozard J.R. et al., J. Cardiovasc. Pharmacol. 2, 229-245 (1980). A submaximal dose of 5-HT (usually 6µg/kg) was given repeatedly by the intravenous route and changes in heart rate quantified. Examples were given intravenously and the concentration required to reduce the 5HT-evoked response to 50% of the control response (ED50) was then determined.

`CN1C2CCC1CC(NC(=O)c1cc(Cl)cc(Cl)c1)C2` (stereo not drawn) [(2), 3,5-dichloro-N-[3β-{8-methyl-8-azabicyclo(3.2.1)octyl}] benzamide] registered an ED50 of 0.3 mg/kg i.v.

As for `CN1C2CCC1CC(NC(=O)c1cc(Cl)cc(Cl)c1)C2` (stereo not drawn) [(5), 3,5-Dichloro-N-[3α-{8-methyl-8-azabicyclo(3.2.1)octyl}] benzamide], the ED50 is on record as 0.009 mg/kg i.v.
